The numbers were not newly measured in patent publication US6631329B1, “Use of the crystal structure of Staphylococcus aureus isoleucyl-tRNA synthetase in antibiotic design” (Yale University, priority 1999, dated 2003), which cites them from elsewhere.

Series [1] relates to Gram-negative bacterial IRS. Particulars: many Gram-negative bacterial IRS.
Series [2] addresses T1, human isoleucyl-tRNA synthetase (Homo sapiens, UniProt P41252).
T1 sequence (P41252 1-1262): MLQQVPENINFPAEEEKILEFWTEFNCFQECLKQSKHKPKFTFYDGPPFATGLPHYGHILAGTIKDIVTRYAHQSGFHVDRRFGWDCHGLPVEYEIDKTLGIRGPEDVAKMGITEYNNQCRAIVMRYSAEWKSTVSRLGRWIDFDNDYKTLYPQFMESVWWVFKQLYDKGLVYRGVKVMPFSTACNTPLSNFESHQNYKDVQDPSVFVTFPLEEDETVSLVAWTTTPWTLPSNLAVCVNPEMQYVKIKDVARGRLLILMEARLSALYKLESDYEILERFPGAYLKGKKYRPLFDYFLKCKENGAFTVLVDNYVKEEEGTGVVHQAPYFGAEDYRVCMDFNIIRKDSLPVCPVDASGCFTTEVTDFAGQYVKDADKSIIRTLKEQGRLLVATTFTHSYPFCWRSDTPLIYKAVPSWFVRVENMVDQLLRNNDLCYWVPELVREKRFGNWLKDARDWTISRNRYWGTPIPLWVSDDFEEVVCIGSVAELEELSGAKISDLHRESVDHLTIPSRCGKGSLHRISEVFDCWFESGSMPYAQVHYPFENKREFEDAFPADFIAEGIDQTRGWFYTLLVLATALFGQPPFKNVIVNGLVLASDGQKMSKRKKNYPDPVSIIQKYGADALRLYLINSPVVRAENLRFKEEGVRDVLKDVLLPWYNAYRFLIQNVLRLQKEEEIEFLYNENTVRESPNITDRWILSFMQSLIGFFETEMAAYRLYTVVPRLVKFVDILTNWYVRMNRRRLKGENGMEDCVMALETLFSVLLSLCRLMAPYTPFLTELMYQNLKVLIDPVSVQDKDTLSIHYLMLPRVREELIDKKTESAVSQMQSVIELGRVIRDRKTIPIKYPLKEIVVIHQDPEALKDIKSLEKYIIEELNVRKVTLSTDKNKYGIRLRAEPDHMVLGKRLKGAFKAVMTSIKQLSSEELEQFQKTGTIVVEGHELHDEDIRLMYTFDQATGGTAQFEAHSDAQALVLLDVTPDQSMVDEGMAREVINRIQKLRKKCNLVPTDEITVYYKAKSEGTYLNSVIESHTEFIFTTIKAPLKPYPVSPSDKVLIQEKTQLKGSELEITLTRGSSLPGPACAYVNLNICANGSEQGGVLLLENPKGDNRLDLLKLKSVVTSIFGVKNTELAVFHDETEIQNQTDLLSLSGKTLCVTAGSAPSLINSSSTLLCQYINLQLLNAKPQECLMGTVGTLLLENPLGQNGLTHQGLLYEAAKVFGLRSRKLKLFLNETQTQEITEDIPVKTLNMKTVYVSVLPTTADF

Series [3] relates to Pseudomonic fluoscenes (Psefl) enzyme. Particulars: SA IRS vs Pseudomonic fluoscenes enzyme.
The target in series [4] is T2, isoleucyl-tRNA synthetase (IRS) (Staphylococcus aureus, UniProt P41972).
T2 sequence (P41972 1-917): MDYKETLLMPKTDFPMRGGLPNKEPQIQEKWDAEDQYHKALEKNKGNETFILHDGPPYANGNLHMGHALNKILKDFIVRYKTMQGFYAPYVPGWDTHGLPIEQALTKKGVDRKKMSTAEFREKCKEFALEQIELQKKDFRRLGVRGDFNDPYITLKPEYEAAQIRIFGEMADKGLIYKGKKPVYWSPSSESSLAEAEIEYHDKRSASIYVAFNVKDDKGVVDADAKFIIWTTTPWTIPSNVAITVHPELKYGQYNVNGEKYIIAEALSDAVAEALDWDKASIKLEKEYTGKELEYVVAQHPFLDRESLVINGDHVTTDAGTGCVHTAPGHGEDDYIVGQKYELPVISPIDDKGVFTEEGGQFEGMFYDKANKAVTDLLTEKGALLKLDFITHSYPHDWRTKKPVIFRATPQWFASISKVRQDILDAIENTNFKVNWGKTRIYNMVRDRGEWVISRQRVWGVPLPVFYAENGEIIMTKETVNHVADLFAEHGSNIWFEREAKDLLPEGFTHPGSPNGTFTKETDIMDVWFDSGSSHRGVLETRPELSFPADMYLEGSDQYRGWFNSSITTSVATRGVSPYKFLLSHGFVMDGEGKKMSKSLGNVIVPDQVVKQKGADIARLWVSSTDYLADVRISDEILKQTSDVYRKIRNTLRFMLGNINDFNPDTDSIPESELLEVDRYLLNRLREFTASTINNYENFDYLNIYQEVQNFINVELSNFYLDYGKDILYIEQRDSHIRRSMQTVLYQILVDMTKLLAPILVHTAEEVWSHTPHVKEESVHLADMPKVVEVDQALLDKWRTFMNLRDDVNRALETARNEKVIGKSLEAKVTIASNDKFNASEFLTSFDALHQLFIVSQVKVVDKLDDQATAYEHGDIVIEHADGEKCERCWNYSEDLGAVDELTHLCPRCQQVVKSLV
Particulars: with respect to isoleucine.

For series [5], the system named is MRSA.
In series [6] the test system is MRSA. The following applies: topical use.
The test system of series [7] is MRSA. Particulars: in vivo.
The target in series [8] is MURSA isoleucyl-tRNA synthetase (Staphylococcus aureus, UniProt P41368).
Chain of MURSA isoleucyl-tRNA synthetase (P41368 whole entry): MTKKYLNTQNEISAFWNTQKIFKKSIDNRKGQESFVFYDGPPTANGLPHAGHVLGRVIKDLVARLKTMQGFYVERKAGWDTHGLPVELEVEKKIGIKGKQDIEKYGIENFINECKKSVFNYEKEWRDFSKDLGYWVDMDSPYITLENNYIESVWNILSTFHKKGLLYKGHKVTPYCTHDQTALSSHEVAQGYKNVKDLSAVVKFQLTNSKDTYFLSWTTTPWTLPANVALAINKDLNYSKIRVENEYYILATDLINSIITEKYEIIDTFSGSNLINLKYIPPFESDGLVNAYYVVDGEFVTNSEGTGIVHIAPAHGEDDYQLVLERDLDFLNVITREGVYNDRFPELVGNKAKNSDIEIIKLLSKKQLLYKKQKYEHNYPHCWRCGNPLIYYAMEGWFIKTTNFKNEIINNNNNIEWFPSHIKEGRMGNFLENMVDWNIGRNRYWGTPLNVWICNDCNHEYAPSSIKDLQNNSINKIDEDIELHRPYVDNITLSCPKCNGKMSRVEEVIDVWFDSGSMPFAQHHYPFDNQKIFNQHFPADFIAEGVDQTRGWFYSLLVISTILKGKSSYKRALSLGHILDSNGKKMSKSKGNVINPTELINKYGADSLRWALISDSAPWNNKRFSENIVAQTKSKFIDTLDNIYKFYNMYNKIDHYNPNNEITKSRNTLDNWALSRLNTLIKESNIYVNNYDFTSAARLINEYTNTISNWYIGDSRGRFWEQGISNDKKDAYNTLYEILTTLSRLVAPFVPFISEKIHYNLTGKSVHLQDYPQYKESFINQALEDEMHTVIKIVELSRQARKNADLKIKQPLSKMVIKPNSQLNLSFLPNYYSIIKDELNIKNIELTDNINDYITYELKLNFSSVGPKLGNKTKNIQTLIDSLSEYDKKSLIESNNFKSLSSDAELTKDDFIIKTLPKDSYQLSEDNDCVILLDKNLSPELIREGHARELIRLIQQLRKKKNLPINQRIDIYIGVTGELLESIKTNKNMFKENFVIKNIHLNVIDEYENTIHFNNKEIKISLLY

In the case of `C/C(=C\C(=O)O)C[C@@H]1OC[C@H](C[C@@H]2O[C@H]2[C@@H](C)[C@H](C)O)[C@@H](O)[C@H]1O` [monic acid], where the note is “in vivo”, the “activity of the metabolite” value was “inactive” and the “clearance in the urine” value is listed as “rapidly cleared”.

With `C/C(=C\C(=O)OCCCCCCCCC(=O)O)C[C@@H]1OC[C@H](C[C@@H]2O[C@H]2[C@@H](C)[C@H](C)O)[C@@H](O)[C@H]1O` [Mupirocin, mupirocin], in series [1], the “concentration at which mupirocin inhibits bacterial IRS” value is “nM concentrations”. Moreover, in series [2], the “sensitivity of human isoleucyl-tRNA synthetase to the antibiotic” value is listed as “resistant”. The “concentration for binding the human enzyme relative to bacterial IRS” value in series [2] (higher than for bacterial IRS) is recorded as 3 to 4 orders of magnitude. For the same compound, the “difference in inhibition between SA IRS and Psefl enzyme” value in [3] was 10^6. For the same compound, in series [4], the “mode of inhibition of IRS” value is listed as “competitive inhibitor for isoleucine”. In the series with MRSA [5], the “effectiveness against MRSA” value is recorded as “highly effective”. For the same compound, in the series with MRSA [6], the “eradication of nasal carriage of MRSA” value is “very successfully eradicated”. Also, the “eradication of MRSA in skin and virginal infections” value with MRSA [6] (after failure of intervenous vancomycin therapy) was “eradicated”. In addition, the “effectiveness against bacteremia caused by MRSA” value with MRSA [7] is “not very effective”. Also, the “sensitivity of MURSA isoleucyl-tRNA synthetase to the antibiotic” value in [8] was “resistant”. Besides, under “metabolic conversion from pseudomonic acid to monic acid”, the half-life in vivo result is given as “short”.
